Experimental findings from publication PMC11317148, “DNA-controlled protein fluorescence: Design of aptamer-split peptide hetero-modulator for GFP to respond to intracellular ATP levels” (Nucleic Acids Research, 2024) are described below.

The subject of test [1] is tripartite split-GFP (ipGFP1-9). The test can be described thus: ATP-mediated in vitro reconstitution of tripartite split-GFP (ssAPC + ipGFP1-9), fluorescence time course. The note with it: 10 mM of each nucleotide, 12 h incubation. The test is classed as biochemical. As for the experimental part: We prepared a 50 μL mixture containing 1 μM aptamer-peptide complex and 20 μM ipGFP1-9 in ATP binding buffer (ATPBB; 20 mM Tris, 300 mM NaCl and 5 mM MgCl2, pH 7.4). These mixtures were transferred to a 384-well black microplate (Greiner Bio One, Kremsmünster, Austria) and challenged with various concentrations of ATP (2–10 mM). Fluorescence intensities were measured over a time course of 20 h at 5 min intervals using the extended mode of Cytation 7 (BioTek, Winooski, VT, USA) with excitation/emission wavelengths of 488/525 nm.
To assess the functionality of the aptamer-split peptide conjugate for GFP function modulation, we performed a time-course in vitro reconstitution assay with ssAPC and split GFP1-9 in the presence of varying concentrations of ATP (Figure 2A). Our group previously reported an in vitro reconstitution application using intein-mediated purified split GFP1-9 (ipGFP1-9) with improved solubility and expression levels to provide evidence of compatibility for application in this study ([28]). […] In the absence of ATP, we observed a modest background signal that could yield a false-positive result at earlier time-points (Figure 2A, dark gray trace), although this could readily be distinguished as a negative result relative to ATP-containing samples at later time-points. […] As aforementioned, according to Kang et al., the performance of this ATP aptamer has been proven by measuring EC50 values in terms of ATP-induced structure-switching with different lengths of antisense DNAs (11–18 nt) ([27]).
We also verified the specificity of our system towards ATP as a trigger molecule by assessing its response to other nucleotides such as UTP, GTP and CTP under identical conditions. To validate the low false-positive rate of self-assembly or non-specific binding, we compared the recovered fluorescence intensities after 12 h of incubation with 10 mM of each nucleotide.
We subsequently evaluated the performance of our system in the context of sustained responsiveness to environmental ATP changes. We conducted an experiment in which we measured fluorescence intensity over time while adding extra ATP in 2 mM increments every 120 min, up to a final concentration of 10 mM.
To verify that the fluorescence signal resulted from ATP-induced structure-switching, we performed experiments with the aptamer-modulated split GFP, in which we included an inhibitory strand that was fully complementary to the ATP aptamer sequence. We first performed an assembly reaction with the ssAPC, ipGFP1-9, and ATP for 12 h to generate a strong fluorescent signal, after which we added the inhibitory strand at varying molar ratios relative to the ssAPC ranging from 1:5 to 1:20 (Figure 2D).

Test [2] concerns A549 human lung carcinoma cells. The test can be described thus: Live-cell imaging of the aptamer-modulated split GFP response to intracellular ATP. The conditions noted are these: cells treated with ssAPC/ipGFP1-9 and Oligomycin A, compared to untreated controls. The test is classed as cell-based. As for the experimental part:
A549 human lung carcinoma cells were obtained from the Korean Cell Line Bank (Seoul, South Korea). The cells were cultured at 37°C and 5% CO2 in DMEM containing 10% FBS (v/v) and penicillin/streptomycin (Thermo Fisher Scientific, Waltham, MA, USA). A549 cells were seeded at a density of 1 × 10^4 cells/well in 96-well cell culture black plates (Greiner Bio One, Kremsmünster, Austria). After 24 h, the cells were transfected with naïve GFP, ipGFP1-9, and aptamer-peptide complexes using Lipofectamine 3000 (Thermo Fisher Scientific, Waltham, MA, USA) according to the manufacturer's instructions. The cells were imaged using the Cytation 7 Cell Imaging Multi-Mode Reader (BioTek Instruments, Winooski, VT, USA) with excitation/emission wavelengths of 488/525 nm for 24 h under cultivation conditions with 5% CO2 at 37°C. Images were analyzed using ImageJ software (https://imagej.nih.gov).
For starvation experiments, A549 cells were seeded at a density of 1 × 10^6 cells/dish in 100 mm^2 cell culture dishes. After incubation for 24 h, the medium was changed to DMEM without glucose. […] Intracellular ATP concentrations were measured using an ATP assay kit (Abcam, Cambridge, MA, USA) according to the manufacturer's instructions.
Finally, we assessed the functionality of aptamer-modulated split GFP to respond to intracellular ATP levels via the reassembly within cells. […]

As to `O=c1ccn([C@@H]2O[C@H](COP(=O)(O)OP(=O)(O)OP(=O)(O)O)[C@@H](O)[C@H]2O)c(=O)[nH]1` [UTP], the “fluorescence recovery of ssAPC/ipGFP1-9 assembly by nucleotide (specificity)” value in test [1] is listed as “minimal response”.
Turning to Oligomycin A, in test [2], the “intensity of green fluorescence of ssAPC/ipGFP1-9 after ATP depletion” value was “conspicuous decrease”.
In the case of `Nc1nc2c(ncn2[C@@H]2O[C@H](COP(=O)(O)OP(=O)(O)OP(=O)(O)O)[C@@H](O)[C@H]2O)c(=O)[nH]1` [GTP], the “fluorescence recovery of ssAPC/ipGFP1-9 assembly by nucleotide (specificity)” value in test [1] is “minimal response”.
On the same count and under the same terms, the same measure for `Nc1ccn([C@@H]2O[C@H](COP(=O)(O)OP(=O)(O)OP(=O)(O)O)[C@@H](O)[C@H]2O)c(=O)n1` [CTP]: “minimal response”.
On the same count and under the same terms, the same measure for `Nc1ncnc2c1ncn2[C@@H]1O[C@H](COP(=O)(O)OP(=O)(O)OP(=O)(O)O)[C@@H](O)[C@H]1O` [ATP]: “highly ATP-specific”.
